{
  "source": "patent US20110257145A1",
  "about": "“METHOD OF TREATING NEUROLOGICAL DISEASES” (THE BOARD OF TRUSTEES OF THE UNIVERSITY OF ILLINOIS, priority 2008, published 2011)",
  "origin": "cited, not measured here",
  "key": {"mouse PKCα": {"target": "mouse PKCα (Mus musculus, UniProt P20444)", "settings": "PKC binding, value marked [52]; read-out: K1[nm] ± SEM; cited from earlier work"}, "[1]": {"system": "fibroblasts from AD patients", "settings": "sub-nanomolar concentrations; cited from earlier work"}, "[2]": {"system": "AD double-transgenic mouse", "settings": "in vivo; cited from earlier work"}},
  "data": [
    {"compound": "CCC/C=C/C=C/C(=O)O[C@H]1/C(=C/C(=O)OC)C[C@H]2C[C@H]([C@@H](C)O)OC(=O)C[C@H](O)C[C@@H]3C[C@H](OC(C)=O)C(C)(C)[C@](O)(C[C@@H]4C/C(=C/C(=O)OC)C[C@H](/C=C/C(C)(C)[C@]1(O)O2)O4)O3", "note": "[Bryostatin 1]", "values": [
      {"measurement": "Ki", "setting": "mouse PKCα", "result": 1.4, "unit": "nM"},
      {"measurement": "secretion of the α-secretase product sAPPα", "setting": "[1]", "result": "dramatically enhances"},
      {"measurement": "behavioral outcome", "setting": "[2]", "result": "improved"},
      {"measurement": "brain Aβ40", "setting": "[2]", "result": "decreased"},
      {"measurement": "brain Aβ42", "setting": "[2]", "result": "decreased"},
      {"measurement": "rate of premature death", "setting": "[2]", "result": "ameliorated"}
    ]}
  ]
}
